In patent US20110039763A1, “TARGETED ANTIMICROBIAL MOIETIES” (C3 JIAN, INC., priority 2009, published 2011):
Where two headings read alike, the source gives them in different places. Ends that are not written are not given here. Peptide text beside a SMILES is read from it.

How the values were obtained:
[1] = tested on: Mixed planktonic populations of P. aeruginosa, E. coli, S. epidermidis, and S. mutans; experiment: Microbial population shift assay; format: cell-based; details: mixed culture, 10 μM peptide, 24 h, detection limit 200 cfu/mL, FIG. 18
Description: Peptide (10 μM) or mock-treatment (1×PBS) was then added and samples were incubated at 37° C. for 24 h under anaerobic conditions (80% N2, 15% CO2, 5% H2). […] Plates were then incubated 37° C. under aerobic conditions (TH plates were incubated anaerobically) and colonies counted after 24 h to determine survivors. […] Gram stains and direct microscopic observation (from select isolated colonies) were undertaken to confirm species identity (data not shown). The detection limit of the assay was 200 cfu/mL.
We hypothesized that potential MH-STAMP dual-functionality could affect a particular set of bacteria within a mixed population, thereby promoting the outgrowth of non-targeted organisms and “shifting” the constituent makeup. To examine this possibility, defined mixed populations of planktonic cells were treated continuously and the make-up of the community examined after 24 h.

P. aeruginosa [2] = experiment: Post-antibiotic effect assay, P. aeruginosa; format: cell-based, Pseudomonas aeruginosa; details: P. aeruginosa monoculture; peptide 10 min, then fresh medium; FIG. 17B
Description: (§1) The activity and selectivity of MH-STAMPs after a 10 min incubation was determined by growth retardation experiments against targeted and untargeted bacteria in monocultures, as described previously (Id.). Cells from overnight cultures were diluted to ˜5×10^6 cfu/mL in MH (or TH with 1% sucrose for S. mutans), normalized by OD600 0.05-0.1 and seeded to 96-well plates. Cultures were then grown under the appropriate conditions for 2 h (3 h for S. mutans) prior to the addition of peptides for 10 min. Plates were then centrifuged at 3000×g for 5 min, the supernatants discarded, fresh medium returned (MH or TH without sucrose for S. mutans), and incubation resumed. Bacterial growth after treatment was then monitored over time by OD600.
(§2) MH-STAMP antimicrobial kinetics was ascertained utilizing a variation of the classical post-antibiotic effect assay, which measures the ability of an agent to affect an organism's growth after a short exposure period. Monocultures of MH-STAMP-targeted and untargeted organisms were exposed to M8(KH)-20, M8(BL)-20, BL(KH)-20, or unmodified BD2.20, then allowed to recover. […] Furthermore, replacement of the targeting region with a non-binding peptide abolishes specific activity.

S. mutans [3] = experiment: Post-antibiotic effect assay, S. mutans; format: cell-based, Streptococcus mutans; details: S. mutans monoculture; peptide 10 min, then fresh medium; FIG. 17A
Description: as §1, §2

E. coli = experiment: Post-antibiotic effect assay, E. coli; format: cell-based, Escherichia coli; details: E. coli monoculture; peptide 10 min, then fresh medium; FIG. 17E
Description: as §1, §2

S. aureus = experiment: Post-antibiotic effect assay, S. aureus; format: cell-based, Staphylococcus aureus; details: S. aureus monoculture; peptide 10 min, then fresh medium; FIG. 17D
Description: as §1, §2

S. epidermidis [4] = experiment: Post-antibiotic effect assay, S. epidermidis; format: cell-based, Staphylococcus epidermidis; details: S. epidermidis monoculture; peptide 10 min, then fresh medium; FIG. 17C
Description: as §1, §2

[5] = tested on: BHK-21 (ATCC CRL-10) fibroblasts; experiment: Cytotoxicity (Promega CellTiterGlo assay); format: cell-based, hamster
Description: Streptococcus oralis ATCC 10557, Streptococcus gordonii (Challis), Streptococcus sanguinis (NY101), Streptococcus mitis ATCC 903, Streptococcus salivarius ATCC 13419 and S. mutans wild-type UA140 and JM11 (spectinomycin-resistant) strains were grown in Todd-Hewitt (TH) broth 37° C. in an anaerobic atmosphere of 80% N2, 10% CO2, and 10% H2. BHK-21 (ATCC CRL-10) fibroblasts were propagated in DMEM with 10% FBS, 1 mM sodium pyruvate, 100 units/mL penicillin G, and 100 μg/mL streptomycin at 37° C. with 5% CO2. Cells were detached with 0.25% trypsin and subcultured as recommended by the supplier.
The effect of RB and C16-RB on human fibroblasts was ascertained by utilizing the Promega CellTiterGlo assay, as described by the manufacturer. Briefly, fibroblasts were grown to confluence, detached, and seeded to 5,000 cells per well in a 96-well opaque walled, clear bottom 96-well plate (Nunc International). For long-term dark toxicity, cells were allowed to attach to for 18 h before the culture medium was replaced with medium plus serially-diluted RB or C16-RB (200 μM to 390 nM) or medium alone. After 18-24 h, equal volume Cell Titer Glo reagent was added to each well and mixed. Luciferace activity was then quantified to measure cell viability (Varian Fluorometer in Biolumenescence mode). To measure cytotoxicity after RB or C16-RB light exposure, cells were seeded at ˜10,000 cells per well and allowed to attach for 4 h. Cell growth medium was then replaced with RB or C16-RB containing medium, prior to exposure (a single well at a time) with blue light (400 mW/cm^2) suspended ˜3 cm from the well bottom. After exposure, cultures were disrupted with Cell Titer Glo and luciferase activity quantitated as above.

S. mutans UA140 biofilms = experiment: Photodynamic antimicrobial assay, single-species biofilm; format: cell-based, Streptococcus mutans; details: 24 h S. mutans biofilm; 5 μM, no light
Description: To evaluate C16-RB against monoculture biofilms, S. mutans UA140 was grown overnight in TH prior to inoculation for biofilm formation. For biofilms, 1:5000 dilution of overnight culture was made into TH with 1% sucrose in 2 mL centrifuge tubes (200 μL volume) and grown 24 h under anaerobic conditions. After incubation, biofilms were treated for 5 min with 5 or 25 μM C16-RB or 5 μM RB in 1×PBS, or PBS alone, followed by removal of supernatant and exposure to 5 min blue light (emission 400-550 nm, power 400 mW/cm^2) from an Astralis 7 (Ivoclar Vivodent, Austria) handheld LED commonly used as a dental curing light. The light source was suspended 4 cm from the tube bottom (even with the mouth of the tube). A duplicate set of samples were left covered to serve as dark controls. After treatment, biofilms were mechanically disrupted and plated to determine cfu/mL.
After synthesis, the basic photosensitization potential of C16-RB was assessed by challenging mature single-species S. mutans biofilms (grown 24 h) with C16-RB or unmodified RB, followed by blue emission from a dental curing light.

[6] = tested on: mixed biofilms of S. oralis, S. gordonii, S. mitis, S. sanguinis, S. salivarius, and S. mutans JM11; experiment: Photodynamic antimicrobial assay, multispecies biofilm; format: cell-based
Description: To gauge C16-RB selectivity for S. mutans, similar assays were conducted against multispecies biofilms. Mixed biofilms were seeded by diluting (1:5000) a mixture of equal parts S. oralis, S. gordonii, S. mitis, S. sanguinis, S. salivarius, and S. mutans JM11 (made from overnight cultures) into TH with 1% sucrose, 1% glucose, and 1% mannose. Biofilms were incubated and treated as described above with the addition of vitamin C or potassium gluconate. After the addition of agent and 5 min incubation, biofilms were washed 1× with 1×PBS prior to light exposure. After PDT and biofilm disruption, survivors were plated on TH, and TH supplemented with 800 μg/mL spectinomycin, which allowed for quantitation of surviving total oral streptococci and surviving S. mutans, respectively.
C16-RB was next evaluated for selectivity in mixed cultures containing S. mutans and non-cariogenic oral streptococci that compete for the same niche on the tooth surface. We utilized mixed biofilms of S. mutans transformed with spectinomycin resistance (strain JM11, Merritt, et al., 2005), plus S. oralis, S. gordonii, S. mitis, S. sanguinis, and S. salivarius. The mixed cultures were grown 24 and then treated with RB or C16-RB as indicated, plus potassium gluconate to minimize killing of untargeted bacteria by reducing the superoxide-producing activity of the free C16-RB not bound to S. mutans. […]

S. epidermidis [7] = experiment: MIC test (broth microdilution) / antimicrobial activity, S. epidermidis; format: cell-based, Staphylococcus epidermidis
Description: (§3) The active AMPs, STAMPs and the like can be identified and/or validated using an in vitro screening assay.
(§4) It will be appreciated that other assays as are well known in the art or that will become apparent to those having skill in the art upon review of this disclosure may also be used to identify active AMPs. Such assays include, for example, the assay described in Lehrer et al. (1988) J. Immunol.
(§5) Peptides were evaluated for basic antimicrobial activity by broth microdilution, as described previously (Eckert et al. (2006) Antimicrob Agents Chemother., 50: 3651-3657; Eckert et al. (2006) Antimicrob Agents Chemother., 50: 1480-1488). Briefly, ˜1×10^5 cfu/mL bacteria were diluted in TH (S. mutans), or Mueller-Hinton (MH) broth (all other organisms) and distributed to 96-well plates. Serially-diluted (2-fold) peptides were then added and the plates incubated at 37° C. for 18-24 h. […] All experiments were conducted 10 times.

microorganisms [8] = experiment: Morphology, biofilm and growth disrupting peptides (Table 5); format: cell-based; set-up: key: A: Peptide aggregates; B: Less hyphal formation; Clumps; Diffuse clumps and small polyps; F: Diffuse growth; H: Thin; I: Growth inhibition; Microcolony formation; Rippled; Small polyps; Thick; W: Halo formation on top, microlonies on bottom
Source text: In certain embodiments peptides that induce alterations in phenotype or other biological activities can also be used as antimicrobial effector moieties.

B. subtilis = experiment: MIC test / antimicrobial activity, B. subtilis; format: cell-based, Bacillus subtilis
Description: as §3, §4, §5

MRSA = experiment: MIC test / antimicrobial activity, MRSA; format: cell-based, Methicillin-resistant Staphylococcus aureus
Description: as §3, §4, §5

P. aeruginosa [9] = experiment: MIC test (broth microdilution) / antimicrobial activity, P. aeruginosa; format: cell-based, Pseudomonas aeruginosa
Description: as §3, §4, §5

T. rubrum = experiment: MIC test / antimicrobial activity, T. rubrum; format: cell-based, Trichophyton rubrum
Description: as §3, §4, §5

C. jeikeium = experiment: MIC test / antimicrobial activity, C. jeikeium; format: cell-based, Corynebacterium jeikeium
Description: as §3, §4, §5

microorganisms [10] = experiment: Peptide activities: targeting/binding, antimicrobial, growth or phenotype altering (Tables 7, 8); format: cell-based; details: peptides having multiple activities
A. niger = experiment: MIC test / antimicrobial activity, A. niger; format: cell-based, Aspergillus niger
Description: as §3, §4, §5

A. baumannii = experiment: MIC test / antimicrobial activity, A. baumannii; format: cell-based, Acinetobacter baumannii
Description: as §3, §4, §5

C. difficile = experiment: MIC test / antimicrobial activity, C. difficile; format: cell-based, Clostridium difficile
Description: as §3, §4, §5

S. mutans [11] = experiment: MIC test (broth microdilution) / antimicrobial activity, S. mutans; format: cell-based, Streptococcus mutans
Description: as §3, §4, §5

## CC[C@H](C)[C@H](NC(=O)[C@@H](N)Cc1ccccc1)C(=O)N[C@@H](CCCNC(=N)N)C(=O)N[C@@H](CCCCN)C(=O)N[C@@H](Cc1ccccc1)C(=O)N[C@@H](CC(C)C)C(=O)N[C@@H](CCCCN)C(=O)N[C@@H](CCCCN)C(=O)N[C@@H](Cc1c[nH]c2ccccc12)C(=O)N[C@@H](CC(C)C)C(=O)N[C@@H](CC(C)C)C(N)=O [BD2.20] (H-FIRKFLKKWLL-NH2; N-terminus assumed)
[1]; input ~0.5×10^4 cfu/mL
  surviving P. aeruginosa: significant loss of recoverable cfu/mL
[1]; input ~2×10^4 cfu/mL
  surviving E. coli: significant loss of recoverable cfu/mL
  surviving S. epidermidis: significant loss of recoverable cfu/mL
[1]; input ~6×10^4 cfu/mL
  surviving S. mutans: significant loss of recoverable cfu/mL
P. aeruginosa [2]
  growth after treatment (culture recovery, OD600): robust antimicrobial activity
S. mutans [3]
  growth after treatment (culture recovery, OD600): robust antimicrobial activity
E. coli
  growth after treatment (culture recovery, OD600): inhibited
S. aureus
  growth after treatment (culture recovery, OD600): inhibited
S. epidermidis [4]
  growth after treatment (culture recovery, OD600): inhibited

## O=C1OC2(c3cc(I)c(O)c(I)c3Oc3c2cc(I)c(O)c3I)c2c(Cl)c(Cl)c(Cl)c(Cl)c21 [RB, rose bengal]
[5]; 5 min w/blue light
  IC50: 40 µM
  IC50 (μM) BHK: light-dependent toxicity
[5]; 24 h dark
  IC50: 90 µM
S. mutans UA140 biofilms
  decrease in cfu/mL, dark control: appreciable decreases in cfu/mL were not observed
[6]; blue light illumination, FIG. 22
  selectivity of photodynamic antimicrobial activity: strong indiscriminant photodynamic antimicrobial effects
[6]; potassium gluconate, blue light
  ratio of surviving S. mutans:non-cariogenic streptococci cfu: ~1

## GSVIKKRRKRMAKKKHRKLLKKTRIQRRRAGK [PF-527]
S. epidermidis [7]
  Organism MIC (μM): S. epidermidis, 25 μM
Microorganisms [8]; B. subtilis
  Organism, effect: B. subtilis (I)
Microorganisms [8]; C. albicans
  Organism, effect: C. albicans (B)
Microorganisms [8]; C. jeikeium
  Organism, effect: C. jeikeium (I)
Microorganisms [8]; C. jejuni
  Organism, effect: C. jejuni (M)
Microorganisms [8]; M. luteus
  Organism, effect: M. luteus (S)
Microorganisms [8]; MRSA
  Organism, effect: MRSA (I)
Microorganisms [8]; P. aeruginosa
  Organism, effect: P. aeruginosa (I)
Microorganisms [8]; S. epidermidis
  Organism, effect: S. epidermidis (M)
Microorganisms [8]; S. pneumoniae
  Organism, effect: S. pneumoniae (H)
B. subtilis
  Organism MIC (μM): B. subtilis, 12.5 μM
MRSA
  Organism MIC (μM): MRSA, 50 μM
P. aeruginosa [9]
  Organism MIC (μM): P. aeruginosa, 50 μM
T. rubrum
  Organism MIC (μM): T. rubrum, 25 μM
C. jeikeium
  Organism MIC (μM): C. jeikeium, 6.25 μM
Microorganisms [10]
  Activities: G B M
A. niger
  Organism MIC (μM): A. niger, 50 μM

## YIQFHLNQQPRPKVKKIKIFL-NH2 [PF-531]
S. epidermidis [7]; S. epidermidis
  Organism MIC (μM): S. epidermidis, 50 μM
Microorganisms [8]; E. coli
  Organism, effect: E. coli (M)
Microorganisms [8]; P. aeruginosa
  Organism, effect: P. aeruginosa (I)
Microorganisms [8]; S. epidermidis
  Organism, effect: S. epidermidis (I)
Microorganisms [8]; S. pneumoniae
  Organism, effect: S. pneumoniae (C)
B. subtilis; B. subtilis
  Organism MIC (μM): B. subtilis, 25 μM
A. baumannii
  Organism MIC (μM): A. baumannii, 25 μM
P. aeruginosa [9]; P. aeruginosa
  Organism MIC (μM): P. aeruginosa, 50 μM
T. rubrum
  Organism MIC (μM): T. rubrum, 50 μM
C. difficile
  Organism MIC (μM): C. difficile, 12.5 μM
C. jeikeium
  Organism MIC (μM): C. jeikeium, 6.25 μM
S. mutans [11]
  Organism MIC (μM): S. mutans, 12.5 μM
Microorganisms [10]
  Activities: G M
A. niger
  Organism MIC (μM): A. niger, 25 μM
